Measurements reported in patent US10712352B2, “Methods and devices for assessing in vivo toxic levels of bilirubin and diagnosing increased risk of bilirubin neurotoxicity” (NEOMETRIX DX, priority 2018, dated 2020).

Assays:
[1] = target: human albumin (Homo sapiens, UniProt P02768); experiment: Bilirubin binding before and after adding sulfisoxazole to a bilirubin/human albumin sample
Source text: The clinically relevant quantification of bilirubin binding are the mass action variables above (BTotal, BFree, BTotal_2, BFree_2, BTmax, and KA) constitute a Bilirubin Binding Panel (BBP). Optionally, BTmax and KA can be used to determine whether a newborn binds bilirubin normally.
Measuring Total and Unbound Bilirubin (BTotal and BFree): The peroxidase test (see, e.g., Jacobsen J, Wennberg R P. Determination of unbound bilirubin in the serum of newborns. Clin Chem 1974; 20:783-789) measures both BTotal and BFree. This test is used clinically in Japan. In alternative embodiments, novel modifications of methods as provided herein measure BFree at two horseradish peroxidase levels to accurately determine BFree and measure BTotal and BFree before and after bilirubin enrichment of a plasma or other blood sample to provide BTmax and KA to complete the Bilirubin Binding Panel (BBP) described herein. […] The peroxidase test is based on the horse radish peroxidase (HRP) catalyzed oxidation of bilirubin by peroxide. Bilirubin absorbs light maximally at 440 nm when no albumin is present and at 460 nm when bound to albumin. Bilirubin bound to albumin is protected from oxidation and only BFree is oxidized. The light absorbance at 440 nm (no albumin) or 460 nm (albumin present) decreases as bilirubin is oxidized, and the reaction rate constant, Kp, can be determined using known bilirubin and HRP concentrations in solutions without albumin present (i.e. all the bilirubin is unbound or “free”) as shown in the equivalent velocity equations below: […]
BTotal is calculated from the absorbance prior to adding HRP and H2O2 and BFree from the change in absorbance following addition of HRP/H2O2 as further described below. […]
BTotal is calculated by dividing the initial absorbance by the known extinction coefficient (0.827/cm light path length for BTotal in […]) and BFree is calculated from the change in absorbance at 460 nm after adding HRP/H2O2. […]

[2] = test system: plasma bilirubin binding sites (e.g. albumin); experiment: Bilirubin binding panel (peroxidase test, before and after bilirubin enrichment) in plasma of 31 newborns <28 weeks gestation; design: species or system human
Source text: [formula] can be readily solved by for BTmax and KA by measuring BTotal and BFree before and after enrichment of the sample with bilirubin to provide BTotal, BFree, and BTotal_2, BFree_2. These provide two equations with two unknowns (BTmax and KA), that can be solved for BTmax as shown below:
(§1) This test is used clinically in Japan.
(§2) BFree is obtained by measuring BFss at the additional HRP concentration and using […]

[3] = target: human defatted albumin (Homo sapiens, UniProt P02768); experiment: Bilirubin binding isotherm in artificial serum containing human defatted albumin (peroxidase test); conditions: albumin 3.0 g/dL
Sequence of human defatted albumin (P02768 25-609): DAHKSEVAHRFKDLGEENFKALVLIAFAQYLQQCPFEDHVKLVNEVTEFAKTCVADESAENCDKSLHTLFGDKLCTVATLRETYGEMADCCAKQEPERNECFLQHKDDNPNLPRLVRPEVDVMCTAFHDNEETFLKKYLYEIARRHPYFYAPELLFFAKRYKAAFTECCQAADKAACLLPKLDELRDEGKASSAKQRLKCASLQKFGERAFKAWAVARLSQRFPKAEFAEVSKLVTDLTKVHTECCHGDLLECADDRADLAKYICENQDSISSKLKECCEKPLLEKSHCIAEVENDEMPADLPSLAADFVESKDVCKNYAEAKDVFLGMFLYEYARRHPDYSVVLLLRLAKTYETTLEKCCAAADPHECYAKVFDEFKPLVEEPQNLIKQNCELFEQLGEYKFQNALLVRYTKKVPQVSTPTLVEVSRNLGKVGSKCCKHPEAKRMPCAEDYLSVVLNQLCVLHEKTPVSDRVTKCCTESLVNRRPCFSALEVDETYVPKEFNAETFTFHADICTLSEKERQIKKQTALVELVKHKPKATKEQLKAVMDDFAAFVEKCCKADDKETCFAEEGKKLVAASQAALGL
Procedure: FIG. 5 illustrates the change in BFree (black dots) as BTotal increases. The negative intercept of 1/BFree versus 1/BTotal, i.e. KA, is […] and the negative slope/intercept, i.e. BTmax, is 37.5 mg/dL. The BTmax and KA in Table 3 are calculated as described above using the lowest BTotal (8.3 mg/dL) and BFree (0.51 μg/dL) paired with each of the other five measures of BTotal and BFree. The mean BTmax and KA of all 15 possible pairings in TABLE 4 are 39.1 mg/dL and 0.56 dL/μg, respectively.
Non-linear regression analysis of the molar ratios versus the BFree from TABLE 3 were used to determine the best fit K1 (0.93 dL/μg) and K2 (0.04 dL/μg) using the stoichiometric equation
as §1, §2

Sequence of human albumin (P02768 25-609): as above

SMILES | KA ([1]; 3.0 g/dL albumin, without or with sulfa) [dL/µg] | effect of adding sulfisoxazole on bilirubin BFree ([1]; bilirubin/human albumin sample, 3.0 g/dL albumin) | BFree_2 (free bilirubin after bilirubin enrichment) ([2]; 25th-75th percentile, after enrichment) [µg/dL] | BFree_2 (free bilirubin after bilirubin enrichment) ([2]; mean, after enrichment (mean BTotal_2 13.8 mg/dL)) [µg/dL] | BFree_2 (free bilirubin after bilirubin enrichment) ([2]; median, after enrichment (median BTotal_2 13.7 mg/dL)) [µg/dL] | BFree_2 (free bilirubin after bilirubin enrichment) ([2]; range, after enrichment (BTotal_2 6.3-23.0 mg/dL)) [µg/dL] | BFree ([3]; BTotal 8.3 mg/dL (BTotal/ATotal molar ratio 0.31)) [µg/dL] | BFree ([3]; BTotal 11.7 mg/dL (molar ratio 0.44)) [µg/dL] | BFree ([3]; BTotal 18.5 mg/dL (molar ratio 0.69)) [µg/dL] | BFree ([3]; BTotal 22.2 mg/dL (molar ratio 0.83)) [µg/dL] | BFree ([3]; BTotal 28.3 mg/dL (molar ratio 1.06)) [µg/dL] | BFree ([3]; BTotal 31.3 mg/dL (molar ratio 1.18)) [µg/dL] | BFree ([1]; human, 8.3 mg/dL, pH 7.4) [µg/dL]
Cc1noc(NS(=O)(=O)c2ccc(N)cc2)c1C [+ sulfa, sulfisoxazole] | 0.20 | about doubles the BFree |  |  |  |  |  |  |  |  |  |  | 
C=CC1=C(C)/C(=C/c2[nH]c(Cc3[nH]c(/C=C4\NC(=O)C(C)=C4C=C)c(C)c3CCC(=O)O)c(CCC(=O)O)c2C)NC1=O [bilirubin] |  |  | 1.1 to 3.3 | 2.51 | 1.93 | 0.42 to 10.61 | 0.51 | 0.92 | 1.70 | 2.39 | 6.05 | 9.88 | 0.51
